Like-named read-outs stand apart in the source and are kept apart here. Non-standard residues stand in square brackets, D forms with d. Residues, ends and D or L forms follow the SMILES beside them. *: point of attachment. DOTA = O=C(O)CN1CCN(CC(=O)O)CCN(CC(=O)*)CCN(CC(=O)O)CC1; 1Nal = N[C@@H](Cc1cccc2ccccc12)C(=O)O; NMeNle = CCCC[C@H](NC)C(=O)O
Test: biodistribution in A431-CCK2R/A431-mock xenografted BALB/c nude mice
Format: in vivo
Settings: female, athymic BALB/c nude, mouse, iv, total radioactivity; for tissue to tissue ratio at 4 h / tissue uptake at 4 h: 4 h p.i.; for tissue uptake at 12 h / tissue to tissue ratio at 12 h: 12 h p.i.
Protocol: Biodistribution studies evaluating the tumor uptake of the radiolabeled peptides were performed in 7- to 9-week-old female athymic BALB/c nude mice (Charles River, Sulzfeld, Germany). For the induction of tumor xenografts, 150 μL of DMEM containing 2 × 10^6 A431-CCK2R and A431-mock cells were injected subcutaneously in the right and left flank of each mouse, respectively. And 10–14 days after injection, tumors reached a medium weight of ∼0.25 g. The mice were divided into groups of four and injected intravenously via a lateral tail vein with 0.2 MBq of ^111In-labeled compound (0.02 nmol) and 0.7 and 1.5 MBq of the ^177Lu-labeled compound (0.02 and 0.15 nmol). At 4 and 12 h p.i., the mice were sacrificed and the tumors and other tissues (blood, lung, heart, muscle, spleen, intestine, liver, kidneys, stomach, and pancreas) were removed, weighed, and their radioactivity measured in the γ counter together with the rest of the body. Initial biodistribution studies were performed with the three ^177Lu-labeled CCK2R-targeting ligands at an injected peptide amount of 20 pmol for the time point of 4 h p.i. From these studies, two peptide analogues were selected to further characterize the biodistribution profile also at a later time point of 12 h p.i. and at a higher injected peptide amount of 150 pmol. Additional animal studies were performed for the ^111In-labeled conjugates. Percentage of injected activity per gram tissue (%IA/g), tumor-to-organ activity ratios, as well as whole body activity were calculated for each sample and statistical analysis using independent two-population t-test (significance level p < 0.05) was performed using Origin software. For the comparison of more than two groups, data were analyzed using one-way analysis of variance (ANOVA) Holm–Bonferroni-adjusted post hoc analysis (significance level p < 0.05) using Microsoft Excel 2010 software (Microsoft Excel 2010, Microsoft Corporation, WA).

[1] = A431-CCK2R xenograft tumor, 20 pmol, 20 pmol, read-out: tumor uptake in A431-CCK2R xenografts
[2] = A431-mock xenograft tumor, 20 pmol, 20 pmol, read-out: uptake in A431-mock xenografts
[3] = blood, 20 pmol, 20 pmol, read-out: uptake in blood
[4] = heart, 20 pmol, 20 pmol, read-out: uptake in heart
[5] = intestine, 20 pmol, 20 pmol, read-out: uptake in intestine
[6] = kidney, 20 pmol, 20 pmol, read-out: uptake in kidney
[7] = liver, 20 pmol, 20 pmol, read-out: uptake in liver
[8] = lung, 20 pmol, 20 pmol, read-out: uptake in lung
[9] = muscle, 20 pmol, 20 pmol, read-out: uptake in muscle
[10] = pancreas, 20 pmol, 20 pmol, read-out: uptake in pancreas
[11] = spleen, 20 pmol, 20 pmol, read-out: uptake in spleen
[12] = stomach, 20 pmol, 20 pmol, read-out: uptake in stomach

CCCC[C@@H](C(=O)N[C@@H](CC(=O)O)C(=O)N[C@@H](Cc1cccc2ccccc12)C(N)=O)N(C)C(=O)[C@H](Cc1c[nH]c2ccccc12)NC(=O)CNC(=O)[C@H](Cc1ccc(O)cc1)NC(=O)[C@@H]1CCCN1C(=O)[C@@H](CCC(=O)O)NC(=O)CN1CCN(CC(=O)O)CCN(CC(=O)O)CCN(CC(=O)O)CC1 [[^177Lu]Lu-1, metal not drawn] ({DOTA}-[dE]PYGW[NMeNle]D[1Nal]-NH2)
tissue to tissue ratio at 4 h (A431-CCK2R xenograft tumor / blood, 20 pmol, 20 pmol, read-out: tumor-to-blood ratio): 540 ± 103
tissue to tissue ratio at 4 h (A431-CCK2R xenograft tumor / kidney, 20 pmol, 20 pmol, read-out: tumor-to-kidney ratio): 10
tissue to tissue ratio at 4 h (A431-CCK2R xenograft tumor / liver, 20 pmol, 20 pmol, read-out: tumor-to-liver ratio): 83.3 ± 23
tissue to tissue ratio at 4 h (A431-CCK2R xenograft tumor / stomach, 20 pmol, 20 pmol, read-out: tumor-to-stomach ratio): 5
tissue uptake at 4 h [1]: 34.7 ± 9.4 %ID/g
tissue uptake at 12 h [1]: 23.4 ± 8.64 %ID/g
tissue uptake at 4 h (A431-CCK2R xenograft tumor, 150 pmol, 150 pmol, read-out: tumor uptake in A431-CCK2R xenografts): 16.7 ± 1.48 %ID/g
tissue uptake at 4 h [2]: 0.32 ± 0.14 %ID/g
tissue uptake at 12 h [2]: 0.11 ± 0.02 %ID/g
tissue uptake at 4 h [3]: 0.07 ± 0.02 %ID/g
tissue uptake at 12 h [3]: 0.01 %ID/g
tissue uptake at 4 h [4]: 0.09 ± 0.01 %ID/g
tissue uptake at 12 h [4]: 0.05 ± 0.01 %ID/g
tissue uptake at 4 h [5]: 1.14 ± 0.51 %ID/g
tissue uptake at 12 h [5]: 0.24 ± 0.02 %ID/g
tissue uptake at 4 h (intestine, 150 pmol, 150 pmol, read-out: uptake in intestine): 0.61 ± 0.13 %ID/g
tissue uptake at 4 h [6]: 3.97 ± 1.31 %ID/g
tissue uptake at 12 h [6]: 3.12 ± 1.05 %ID/g
tissue uptake at 4 h (kidney, 150 pmol, 150 pmol, read-out: uptake in kidney): 4.04 ± 0.82 %ID/g
tissue uptake at 4 h [7]: 0.42 ± 0.06 %ID/g
tissue uptake at 12 h [7]: 0.32 ± 0.09 %ID/g
tissue uptake at 4 h (liver, 150 pmol, 150 pmol, read-out: uptake in liver): 0.49 ± 0.12 %ID/g
tissue uptake at 4 h [8]: 0.14 ± 0.05 %ID/g
tissue uptake at 12 h [8]: 0.11 ± 0.07 %ID/g
tissue uptake at 4 h (lung, 150 pmol, 150 pmol, read-out: uptake in lung): 0.15 ± 0.07 %ID/g
tissue uptake at 4 h [9]: 0.06 ± 0.05 %ID/g
tissue uptake at 12 h [9]: 0.02 ± 0.01 %ID/g
tissue uptake at 4 h (muscle, 150 pmol, 150 pmol, read-out: uptake in muscle): 0.05 ± 0.03 %ID/g
tissue uptake at 4 h [10]: 2.09 ± 0.84 %ID/g
tissue uptake at 12 h [10]: 0.76 ± 0.13 %ID/g
tissue uptake at 4 h (pancreas, 150 pmol, 150 pmol, read-out: uptake in pancreas): 0.35 ± 0.06 %ID/g
tissue uptake at 4 h [11]: 0.18 ± 0.04 %ID/g
tissue uptake at 12 h [11]: 0.13 ± 0.03 %ID/g
tissue uptake at 4 h [12]: 7.37 ± 2.26 %ID/g
tissue uptake at 12 h [12]: 4.18 ± 0.72 %ID/g
tissue uptake at 4 h (stomach, 150 pmol, 150 pmol, read-out: uptake in stomach): 1.26 ± 0.5 %ID/g
tissue to tissue ratio at 12 h (tumor/blood, 20 pmol, 20 pmol, read-out: tumor-to-blood ratio): 2440 ± 1780
tissue to tissue ratio at 4 h (tumor/blood, 150 pmol, 150 pmol, read-out: tumor-to-blood ratio): 294 ± 137
tissue to tissue ratio at 12 h (tumor/kidney, 20 pmol, 20 pmol, read-out: tumor-to-kidney ratio): 8.14 ± 4.06
tissue to tissue ratio at 4 h (tumor/kidney, 150 pmol, 150 pmol, read-out: tumor-to-kidney ratio): 4.25 ± 0.88
tissue to tissue ratio at 12 h (tumor/liver, 20 pmol, 20 pmol, read-out: tumor-to-liver ratio): 76.8 ± 34.4
tissue to tissue ratio at 4 h (tumor/liver, 150 pmol, 150 pmol, read-out: tumor-to-liver ratio): 35.9 ± 9.9
tissue to tissue ratio at 12 h (tumor/stomach, 20 pmol, 20 pmol, read-out: tumor-to-stomach ratio): 5.54 ± 1.44
tissue to tissue ratio at 4 h (tumor/stomach, 150 pmol, 150 pmol, read-out: tumor-to-stomach ratio): 14.9 ± 5.6

Source: article PMC7734625, “Stabilization Strategies for Linear Minigastrin Analogues: Further Improvements via the Inclusion of Proline into the Peptide Sequence” (Journal of Medicinal Chemistry, 2020)
